| melting point | Compound |
| --- | --- |
| 183 to 185 °C | C[C@H](CO)Nc1nc(SCc2ccno2)nc2nc(N)sc12 [Example 9, (2R)-2-[[2-Amino-5-[(5-isoxazolylmethyl)thio]thiazolo[4,5-d]pyrimidin-7-yl]amino]-1-propanol] |
| 158 to 160 °C | Cc1nc(CSc2nc(NC(CO)CO)c3sc(N)nc3n2)cs1 [Example 10, 2-[[2-Amino-5-[[(2-methyl-4-thiazolyl)methyl]thio]thiazolo[4,5-d]pyrimidin-7-yl]amino]-1,3-propanediol] |
| 250 to 252 °C | Cc1nc(CSc2nc(NC(C)(C)CO)c3sc(N)nc3n2)cs1 [Example 11, 2-[[2-Amino-5-[[(2-methyl-4-thiazolyl)methyl]thio]thiazolo[4,5-d]pyrimidin-7-yl]amino]-2-methyl-1-propanol] |

— patent US6958343B2, “Thiazolopyrimidines and their use as modulators of chemokine receptor activity” (AstraZeneca, AB, priority 2000, dated 2005)
